Assays:
[1] = molecular target: BRD4 (Homo sapiens, UniProt O60885); assay: Time Resolved Fluorescence Resonance Energy Transfer (TR-FRET) binding assay, BRD4; settings: one of the FRET assays described; read-out: FRET BRD4 IC50
[2] = test system: JJN3R multiple myeloma cell line; assay: Human tumor xenograft model in mice, JJN3R; format: in vivo; settings: QD × 7
Source text: (§1) All rodents were obtained from Jackson Laboratory. (Bar Harbor, Me.), and maintained in an ammonia-free environment in a defined and pathogen-free colony. All mice were quarantined approximately 1 week prior to their use for tumor propagation and drug efficacy testing. Mice were fed food and water ad libitum. The animal care program of Bristol-Myers Squibb Pharmaceutical Research Institute is fully accredited by the American Association for Accreditation of Laboratory Animal Care (AAALAC). All experiments were performed in accordance with Bristol-Myers Squibb (BMS) animal test methods and guidelines.
(§2) Tumor xenografts were grown and maintained subcutaneously (SC) in NSG (NOD scid IL2 receptor gamma chain knockout) mice (Jackson Lab). Tumors were propagated as subcutaneous transplants using tumor fragments obtained from donor mice.
(§3) The required numbers of animals needed to detect a meaningful response were pooled at the start of the experiment and each was given bilateral subcutaneous implants of two tumor fragments (˜20 mg) with a 13-gauge trocar. Tumors were allowed to grow to the pre-determined size window (tumors outside the range were excluded) and animals were evenly distributed to various treatment and control groups. There were typically 6-8 mice per treatment and control groups, consisting of 10-12 tumors. Treatment of each animal was based on individual body weight. Treated animals were checked daily for treatment related toxicity/mortality. Each group of animals was weighed before the initiation of treatment (Wt1) and then again following the last treatment dose (Wt2). The difference in body weight (Wt2−Wt1) provides a measure of treatment-related toxicity.
(§4) Tumor response was determined by measurement of tumors with a caliper twice a week, until the tumors reached a predetermined “target” size of 0.5 gm or 1 gm depending on the tumor type. Tumor weights (mg) were estimated from the formula: Tumor weight=(length×width^2)÷2
(§5) Tumor response criteria are expressed in terms of tumor growth inhibition (% TGI). Tumor growth delay is defined as the difference in time (days) required for the treated tumors (T) to reach a predetermined target size compared to those of the control group (C). For this purpose, the tumor weight of a group is expressed as medium tumor weight (MTW).
(§6) [formula] where, • Ct=Median control tumor size at end of treatment • C0=Median control tumor size at treatment initiation • Tt=Median tumor size of treated group at end of treatment • T0=Median tumor size of treated group at treatment initiation
(§7) Tumor response was also expressed in terms of tumor growth delay and expressed as log cell kill (LCK value), defined as the difference in time (days) required for the treated tumors (T) to reach a predetermined target size compared to those of the control group (C).
(§8) Whenever possible, antitumor activity was determined at a range of dose levels up to the maximum tolerated dose (MTD) which is defined as the dose level immediately […] which excessive toxicity (i.e. more than one death) occurred. When death occurred, the day of death was recorded. Treated mice dying prior to having their tumors reach target size were considered to have died from drug toxicity. No control mice died bearing tumors less than target size. Treatment groups with more than one death caused by drug toxicity were considered to have had excessively toxic treatments and their data were not included in the evaluation of a compound's antitumor efficacy.
(§9) For administration of BET inhibitors to rodents, compounds were dissolved in […]/10% TPGS/10% Ethanol. BET inhibitors were typically administered orally on a schedule of QD×7 or QD×10 (5 day-on-2 day-off), although other schedules had also been evaluated and shown to be efficacious

[3] = test system: H187 Human Small Cell Carcinoma; assay: Human tumor xenograft model in mice, H187; format: in vivo; settings: QD × 7
Source text: as §1, §2, §3, §4, §5, §6, §7, §8, §9

| SMILES | IC50 [1] | LCK ([2]; 1 mg/kg) | LCK ([2]; 4 mg/kg) | also measured |
| --- | --- | --- | --- | --- |
| Cc1nnn(C)c1-c1cnc2c3ccc([C@](C)(O)C4CC4)c(F)c3n([C@H](c3ccccc3)C3CCOCC3)c2c1 [Example 432, (1R)-1-cyclopropyl-1-[3-(dimethyl-1H-1,2,3-triazol-5-yl)-6-fluoro-5-[(S)-oxan-4-yl(phenyl)methyl]-5H-pyrido[3,2-b]indol-7-yl]ethan-1-ol] | < 5 nM | 0.4 | 1.4 | – |
| [2H]C([2H])([2H])c1nnn(C)c1-c1cnc2c3cc(F)c(C(C)(C)O)cc3n([C@H](c3ccccc3F)C3CCOCC3)c2c1 [Example 276, 2-{8-Fluoro-5-[(S)-(2-fluorophenyl)(oxan-4-yl)methyl]-3-[4-(^2H3)methyl-1-methyl-1H-1,2,3-triazol-5-yl]-5H-pyrido[3,2-b]indol-7-yl}propan-2-ol] | < 5 nM | 0.3 | 1 | – |
| [2H]C([2H])([2H])c1nnn(C)c1-c1cnc2c3ccc(C(C)(C)O)c(F)c3n([C@H](c3ccccc3)C3CCOCC3)c2c1 [Example 278, 2-{6-Fluoro-3-[4-(^2H3)methyl-1-methyl-1H-1,2,3-triazol-5-yl]-5-[(S)-oxan-4-yl(phenyl)methyl]-5H-pyrido[3,2-b]indol-7-yl}propan-2-ol] | < 5 nM | 1 | >1.4 | – |
| [2H]C([2H])([2H])c1nnn(C)c1-c1cnc2c3cc(F)c(C(C)(C)O)cc3n([C@H](c3ccccc3)C3CCOCC3)c2c1 [Example 279, 2-{8-Fluoro-3-[4-(^2H3)methyl-1-methyl-1H-1,2,3-triazol-5-yl]-5-[(S)-oxan-4-yl(phenyl)methyl]-5H-pyrido[3,2-b]indol-7-yl}propan-2-ol] | < 5 nM | 0.6 | >1.4 | – |
| Cc1nnn(C)c1-c1cnc2c3ccc(C(C)(C)O)c(F)c3n(C(c3ccccc3)C3CCOCC3)c2c1 (single isomer, unassigned) [Example 70, 2-[3-(dimethyl-1H-1,2,3-triazol-5-yl)-6-fluoro-5-[oxan-4-yl(phenyl)methyl]-5H-pyrido[3,2-b]indol-7-yl]propan-2-ol] | < 5 nM | – | – | % TGI ([3]; H187, 1 mg/kg): 82.0%; LCK ([3]; H187, 1 mg/kg): 0.7; % TGI ([3]; H187, 3 mg/kg): 90.0%; LCK ([3]; H187, 3 mg/kg): 1.0; % TGI ([3]; H187, 10 mg/kg): 96.0%; LCK ([3]; H187, 10 mg/kg): 1.6 |
| [2H]C([2H])([2H])c1nnn(C)c1-c1cnc2c3ccc(S(C)(=O)=O)cc3n([C@H](c3ccccc3)C3CCOCC3)c2c1 [Example 263, 5-{7-Methanesulfonyl-5-[(S)-oxan-4-yl(phenyl)methyl]-5H-pyrido[3,2-b]indol-3-yl}-4-(^2H3)methyl-1-methyl-1H-1,2,3-triazole] | < 5 nM | 0.2 | 0.3 | – |
| [2H]C([2H])([2H])c1nnn(C)c1-c1cnc2c3ccc(C(C)(C)O)cc3n(C(c3ccccc3)C3CCC(F)(F)CC3)c2c1 (stereo not drawn) [Example 203, 2-{5-[(4,4-Difluorocyclohexyl)(phenyl)methyl]-3-[4-(^2H3)methyl-1-methyl-1H-1,2,3-triazol-5-yl]-5H-pyrido[3,2-b]indol-7-yl}propan-2-ol] | < 5 nM | 0.7 | >1.4 | % TGI ([2]; 1 mg/kg): 93%; % TGI ([2]; 4 mg/kg): 105% |
| Cc1nnn(C)c1-c1cnc2c3ccc(C(C)(O)C4CC4)c(F)c3n([C@H](c3ccccc3F)C3CCOCC3)c2c1 (single isomer, unassigned) [Example 436] | < 5 nM | 0.6 | 0.9 | – |

— US10112941B2, “Tricyclic compounds as anticancer agents” (BRISTOL-MYERS SQUIBB COMPANY, priority 2013, dated 2018)
